In experiment [1] the test system is P. aeruginosa. Briefly: MIC, antimicrobial activity assay. The format is cell-based, Pseudomonas aeruginosa (ATCC 9027). Conditions: Pseudomonas aeruginosa; Table 1 first screening; read-out: Minimal Inhibitory Concentration (MIC) P. aeruginosa.
In experiment [2] the test system is S. aureus. Put plainly: MIC, antimicrobial activity assay. Conditions: Staphylococcus aureus; Table 1 first screening; read-out: Minimal Inhibitory Concentration (MIC) S. aureus. Type of experiment: cell-based, Staphylococcus aureus (ATCC 6538P).
The test system of experiment [3] is M. smegmatis. Briefly: microbe, parasite or virus in culture. The format is cell-based, Mycobacterium smegmatis (mc2155, ATCC 700084). Conditions: Mycolicibacterium smegmatis, 72 h, read-out: Minimal Inhibitory Concentration (MIC) M. smegmatis.
Experiment [4] deals with B. subtilis. Briefly: MIC, antimicrobial activity assay. The format is cell-based, Bacillus subtilis (ATCC 6633). Conditions: Bacillus subtilis; Table 1 first screening; read-out: Minimal Inhibitory Concentration (MIC) B. subtilis.
Experiment [5] deals with C. albicans. Briefly: MIC, antifungal activity assay. The format is cell-based, Candida albicans (DSM 10697). Particulars: Candida albicans; Table 1 first screening; 35 °C, 24 h; read-out: Minimal Inhibitory Concentration (MIC) C. albicans.
Experiment [6] deals with E. coli. Put plainly: MIC, antimicrobial activity assay. Particulars: Escherichia coli; Table 1 first screening; read-out: Minimal Inhibitory Concentration (MIC) E. coli. The format is cell-based, Escherichia coli (ATCC 8739).
Experiment [7] has as its system V. alginolyticus. Briefly: Macromolecule synthesis inhibition assay by fluorescent microscopy (morphological changes). Particulars: 4 × MIC, 2 h, 37 °C; for Observed Morphology: DNA, V. alginolyticus: DAPI; for Observed Morphology: cell membrane, V. alginolyticus: FM4-64FX.
Experiment [8] relates to B. subtilis. The experiment is described as above. Particulars: 4 × MIC, 2 h, 37 °C; for Observed Morphology: DNA, B. subtilis: DAPI.

Values after ≈ are worked out from the molar mass of the structure shown.

`COc1ccc2c(c1OC)C(CC(C)=O)N1CCc3cc4c(cc3C1=C2)OCO4` (centres unmarked) [Compound 3, 8-acetonyl dihydroberberine]: the MIC is over 100 µM in experiment [1]; 100 µM (≈ 39.3 µg/mL) in experiment [2]; 100 µM (≈ 39.3 µg/mL) in experiment [3]; over 100 µM in experiment [4]; 100 µM (≈ 39.3 µg/mL) in experiment [5]; over 100 µM in experiment [6].
Take `CO[C@H]1/C=C/O[C@@]2(C)Oc3c(C)c(O)c4c(O)c(c(/C=N/N5CCN(C)CC5)c(O)c4c3C2=O)NC(=O)/C(C)=C\C=C\[C@H](C)[C@H](O)[C@@H](C)[C@@H](O)[C@@H](C)[C@H](OC(C)=O)[C@@H]1C` [Rifampicin]: in experiment [7], the “Observed Morphology: cell elongation, V. alginolyticus” value is given as 2.5 times compared to control; the “Observed Morphology: cells connected, V. alginolyticus” value was 1–2 cells connected; the “Observed Morphology: DNA, V. alginolyticus” value is on record as “Condensed DNA spanning the cell”; the “Observed Morphology: cell membrane, V. alginolyticus” value is “Cell membrane pigmentation”. Besides, in experiment [8], the “Observed Morphology: cell elongation/enlargement, B. subtilis” value was 2.5 times compared to control; the “Observed Morphology: cells connected, B. subtilis” value is recorded as 2–3 cells connected; the “Observed Morphology: DNA, B. subtilis” value is “DNA condensed in one thick filament crossing the cells some with dot like shape”. In addition, in experiment [8] (FM4-64FX), the “Observed Morphology: cell membrane, B. subtilis” value is “Cell membrane thickening”.
Turning to `C[C@@H]1[C@H](O)[C@@H](C)/C=C/C=C/C=C/C=C/C=C/C=C/C=C/[C@H](O[C@@H]2O[C@H](C)[C@@H](O)[C@H](N)[C@@H]2O)C[C@@H]2O[C@](O)(C[C@@H](O)C[C@@H](O)[C@H](O)CC[C@@H](O)C[C@@H](O)CC(=O)O[C@H]1C)C[C@H](O)[C@H]2C(=O)O` [Amphotericin B, reference compound], the MIC in experiment [5] was found to be 1.1 µM (≈ 1.02 µg/mL).
`CO/N=C1\CN(c2nc3c(cc2F)c(=O)c(C(=O)O)cn3C2CC2)CC1CN` (centres unmarked) [Gemifloxacin, reference compound]: the MIC in experiment [1] is 0.25 µM (≈ 0.0973 µg/mL); in experiment [2], 0.06 µM (≈ 0.0234 µg/mL); in experiment [3], 2 µM (≈ 0.779 µg/mL); in experiment [4] it was 0.02 µM (≈ 0.00779 µg/mL); in experiment [6], 0.06 µM (≈ 0.0234 µg/mL). Further, the “Observed Morphology: cell elongation, V. alginolyticus” value in experiment [7] is 3–9 times compared to control. Further, in experiment [7], the “Observed Morphology: cells connected, V. alginolyticus” value is 1–2 cells connected. Besides, the “Observed Morphology: DNA, V. alginolyticus” value in experiment [7] is recorded as “Thick condensed DNA spanning the cell”. Moreover, the “Observed Morphology: cells connected, B. subtilis” value in experiment [8] is reported as “Single cells”. In addition, the “Observed Morphology: DNA, B. subtilis” value in experiment [8] is given as “Decondensed DNA”.
For `CN(C)[C@@H]1C(O)=C(C(N)=O)C(=O)[C@@]2(O)C(O)=C3C(=O)c4c(O)cccc4[C@@](C)(O)[C@H]3C[C@@H]12` [Tetracycline], in experiment [7], the “Observed Morphology: cell elongation, V. alginolyticus” value is given as 1.5–3 times compared to control; the “Observed Morphology: cells connected, V. alginolyticus” value is listed as 1–3 cells connected; the “Observed Morphology: DNA, V. alginolyticus” value was “DNA condensed in one thin filament spiring the cells”. Besides, in experiment [8], the “Observed Morphology: cell elongation/enlargement, B. subtilis” value is 1.5–3 times compared to control; the “Observed Morphology: cells connected, B. subtilis” value was 1–3 cells connected; the “Observed Morphology: DNA, B. subtilis” value was “DNA condensed in one thin filament across the cells”.
Turning to `COc1ccc2c(Cc3ccc(C=NO)cc3)c3[n+](cc2c1OC)CCc1cc2c(cc1-3)OCO2` [Compound 21, N-({4-[(Berberin-13-yl)methyl]phenyl}methylidene)hydroxylamine], the MIC is over 100 µM in experiment [1]; 50 µM in experiment [2]; 50 µM in experiment [3]; 100 µM in experiment [4]; over 100 µM in experiment [5]; over 100 µM in experiment [6].
Consider `COc1ccc2c(Cc3ccc(S(N)(=O)=O)cc3)c3[n+](cc2c1OC)CCc1cc2c(cc1-3)OCO2` [Compound 10, 13-(4-Sulfamoylbenzyl)Berberine], for which the MIC in experiment [1], in experiment [2], in experiment [3], in experiment [4], in experiment [5] and in experiment [6] was over 100 µM in each case.
As for `COc1ccc2c(Cc3ccc(/C=C/C(=O)O)cc3)c3[n+](cc2c1OC)CCc1cc2c(cc1-3)OCO2` [Compound 22, (2E)-3-{4-[(Berberin-13-yl)methyl]phenyl}prop-2-enoic Acid], the MIC in experiment [1], in experiment [2], in experiment [3], in experiment [4], in experiment [5] and in experiment [6] was over 100 µM throughout.
Take `COc1ccc2c(c1OC)CN1CCc3cc4c(cc3C1=C2)OCO4` [Compound 1, Dihydroberberine]: the MIC in experiment [1] is over 100 µM; in experiment [2], 100 µM (≈ 33.7 µg/mL); in experiment [3], over 100 µM; in experiment [4], over 100 µM; in experiment [5], 100 µM (≈ 33.7 µg/mL); in experiment [6], over 100 µM.
Consider `COc1ccc2c(CC(=O)O)c3[n+](cc2c1OC)CCc1cc2c(cc1-3)OCO2` [Compound 5, 13-(Acetic Acid) Berberine], for which the MIC in experiment [1] is over 100 µM; in experiment [2], 100 µM; in experiment [3], 50 µM; in experiment [4], 100 µM; in experiment [5], over 100 µM; in experiment [6] it was over 100 µM.
Take `CC1(C)S[C@@H]2[C@H](NC(=O)[C@H](N)c3ccc(O)cc3)C(=O)N2[C@H]1C(=O)O` [Amoxicillin]: in experiment [7], the “Observed Morphology: cell elongation, V. alginolyticus” value is on record as 1–3 times compared to control; the “Observed Morphology: cells connected, V. alginolyticus” value is reported as 1–2 cells connected; the “Observed Morphology: DNA, V. alginolyticus” value is “Thick condensed and decondensed DNA spanning the cell”; the “Observed Morphology: cell membrane, V. alginolyticus” value is reported as “Cell membrane thickening”. For the same molecule, in experiment [8], the “Observed Morphology: cell elongation/enlargement, B. subtilis” value was 1.5 times compared to control; the “Observed Morphology: cells connected, B. subtilis” value was 2–4 cells connected; the “Observed Morphology: DNA, B. subtilis” value is recorded as 2 condensed DNA in each cell.
Take `COc1ccc2c(Cc3ccc(C#N)cc3)c3[n+](cc2c1OC)CCc1cc2c(cc1-3)OCO2` [Compound 7, 13-(4-Cyanobenzyl)Berberine]: the MIC in experiment [1] was over 100 µM; in experiment [2] it was 100 µM; in experiment [3], 100 µM; in experiment [4] it was over 100 µM; in experiment [5] it was 100 µM; in experiment [6] it was over 100 µM.
As for `COc1ccc2c(Cc3ccc(C=O)cc3)c3[n+](cc2c1OC)CCc1cc2c(cc1-3)OCO2` [Compound 12, 13-(4-Formylbenzyl)Berberine], the MIC in experiment [1] was over 100 µM; in experiment [2] it was 100 µM; in experiment [3], 100 µM; in experiment [4], over 100 µM; in experiment [5] it was over 100 µM; in experiment [6], over 100 µM.

The values are drawn from paper PMC7400437, “Synthesis and Evaluation of the Antibacterial Activities of 13-Substituted Berberine Derivatives” (Antibiotics, 2020).
